Assay results from patent US8222202B2 (priority 2006, dated 2012).
Where two headings read alike, the source gives them in different places. Positions of bridges follow the written chain, without caps; N, C: chain ends. Non-standard residues stand in square brackets, D forms with d. Residues, ends and D or L forms follow the SMILES beside them. *: point of attachment. Ala(4-thiazolyl) = N[C@@H](Cc1cscn1)C(=O)O; Dab(iPr) = CC(C)NCC[C@H](N)C(=O)O; 2Pal = N[C@@H](Cc1ccccn1)C(=O)O; 3Pal = N[C@@H](Cc1cccnc1)C(=O)O; 4Pal = N[C@@H](Cc1ccncc1)C(=O)O; 2Thi = N[C@@H](Cc1cccs1)C(=O)O; Aad = N[C@@H](CCCC(=O)O)C(=O)O; NHCH(CH2OH)2 = OCC(CO)N*; Orn = NCCC[C@H](N)C(=O)O; Dab = NCC[C@H](N)C(=O)O; NHCH2CH2OH = OCCN*; NHiBu = CC(C)CN*; X4 = OCCOCCN*; NHOH = ON*

Columns and labels:
hV1a receptor = target: T1, hV1a receptor (Homo sapiens, UniProt P37288); assay: hV1a receptor transcriptional reporter (luciferase) agonist assay; format: cell-based
T1 construct: expressed in transfected cells; host or cells: HEK-293
Procedure: (§1) Agonist activity of compounds on the hV1a receptor was determined in a transcriptional reporter assay by transiently transfecting a hV1a receptor expression DNA into HEK-293 cells in concert with a reporter DNA containing intracellular calcium responsive promoter elements regulating expression of firefly luciferase. See Boss, V., Talpade, D. J., Murphy, T. J. J. Biol. Chem. 1996, May 3; 271(18), 10429-10432 for further guidance on this assay. […] To determine selectivity, compounds were tested in luciferase-based transcriptional reporter assays expressing the human oxytocin (hOT) receptor. Assays for other receptors (hV2, hV1b, rat V1a and rat V2) were also conducted.
(§2) The EC50 value given is the geometric mean expressed in nanomol/L (nM). Selectivity values are given as EC50 ratios.

[1] = target: T2, human oxytocin (hOT) receptor (Homo sapiens, UniProt P30559); assay: luciferase-based transcriptional reporter assay, selectivity hOT versus hV1a; format: cell-based
T2 construct: expressed in transfected cells
T2 sequence (P30559 1-389): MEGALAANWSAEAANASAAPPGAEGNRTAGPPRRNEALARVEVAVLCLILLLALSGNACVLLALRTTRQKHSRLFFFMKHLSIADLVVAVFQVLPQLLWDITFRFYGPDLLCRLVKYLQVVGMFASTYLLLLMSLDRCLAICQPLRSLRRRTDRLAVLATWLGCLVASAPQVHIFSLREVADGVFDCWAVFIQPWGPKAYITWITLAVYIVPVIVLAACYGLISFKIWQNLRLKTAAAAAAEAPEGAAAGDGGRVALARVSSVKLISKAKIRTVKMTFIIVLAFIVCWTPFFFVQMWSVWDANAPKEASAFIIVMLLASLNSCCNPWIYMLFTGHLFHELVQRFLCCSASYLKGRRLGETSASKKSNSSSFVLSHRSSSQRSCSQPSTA
Procedure: as §1, §2

[2] = HEK-293 cells transiently transfected with hV1a receptor, 5 hours exposure, geometric mean, read-out: EC50 hV1a receptor
[3] = class symbol, agonist efficacy at hOT receptor compared to AVP

T1 sequence (P37288 whole entry): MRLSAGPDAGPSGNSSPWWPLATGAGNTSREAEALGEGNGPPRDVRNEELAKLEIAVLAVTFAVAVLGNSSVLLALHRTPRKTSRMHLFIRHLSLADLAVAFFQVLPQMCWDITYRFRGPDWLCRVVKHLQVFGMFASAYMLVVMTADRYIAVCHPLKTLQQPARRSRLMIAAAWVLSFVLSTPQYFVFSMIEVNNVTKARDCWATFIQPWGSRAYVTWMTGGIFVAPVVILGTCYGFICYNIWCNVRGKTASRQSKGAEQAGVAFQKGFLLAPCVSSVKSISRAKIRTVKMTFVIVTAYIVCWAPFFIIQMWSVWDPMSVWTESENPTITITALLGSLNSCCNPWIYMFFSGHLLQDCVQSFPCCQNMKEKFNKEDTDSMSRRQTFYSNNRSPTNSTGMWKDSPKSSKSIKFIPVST

In the case of CC[C@H](C)[C@@H]1NC(=O)[C@H](Cc2ccccc2)NC(=O)[C@@H](N)CSSC[C@@H](C(=O)N2CCC[C@H]2C(=O)N[C@@H](CCCN)C(=O)NCC(N)=O)NC(=O)[C@H](CC(N)=O)NC(=O)[C@H](CC(=O)N(C)C)NC1=O [Compound 7] (H-CFID(NMe2)NCP[Orn]G-NH2; disulfide 1-6), the EC50 (hV1a receptor) is reported as 2.84 nM and the “selectivity hOT/hV1a” value [1] is reported as “+ (key: +: selective hV1a receptor agonist; EC50 hOT/hV1a ratio not determined due to very low agonist efficacy (<30% compared to AVP) at the hOT receptor)”.
For CC[C@H](C)[C@@H]1NC(=O)[C@H](Cc2ccccc2)NC(=O)[C@@H](N)CSSC[C@@H](C(=O)N2CCC[C@H]2C(=O)N[C@@H](CCN)C(=O)NCC(N)=O)NC(=O)[C@H](CC(N)=O)NC(=O)[C@H](CCC(N)=O)NC1=O [Compound 8] (H-CFIQNCP[Dab]G-NH2; disulfide 1-6; N-terminus and C-terminus assumed), the EC50 (hV1a receptor; [2]) was 0.5 nM and the “selectivity hOT/hV1a” value ([1]; EC50 ratio) was 11.
In the case of CC[C@H](C)[C@@H]1NC(=O)[C@H](Cc2ccncc2)NC(=O)[C@@H](N)CSSC[C@@H](C(=O)N2CCC[C@H]2C(=O)N[C@@H](CCN)C(=O)NCC(N)=O)NC(=O)[C@H](CC(N)=O)NC(=O)[C@H](CCC(N)=O)NC1=O [Compound 12] (H-C[4Pal]IQNCP[Dab]G-NH2; disulfide 1-6), the EC50 (hV1a receptor) is reported as 25 nM and the “selectivity hOT/hV1a” value [1] is reported as “+ (key: +: selective hV1a receptor agonist; EC50 hOT/hV1a ratio not determined due to very low agonist efficacy (<30% compared to AVP) at the hOT receptor)”.
In the case of CC[C@H](C)[C@@H]1NC(=O)[C@H](Cc2cscn2)NC(=O)[C@@H](N)CSSC[C@@H](C(=O)N2CCC[C@H]2C(=O)N[C@@H](CCN)C(=O)NCC(N)=O)NC(=O)[C@H](CC(N)=O)NC(=O)[C@H](CCC(N)=O)NC1=O [Compound 13] (H-C[Ala(4-thiazolyl)]IQNCP[Dab]G-NH2; disulfide 1-6; N-terminus and C-terminus assumed), the EC50 (hV1a receptor; [2]) is reported as 18.8 nM and the “selectivity hOT/hV1a” value [1, 3] is reported as “+ (selective hV1a receptor agonist; EC50 hOT/hV1a ratio not determined due to very low agonist efficacy (<30% compared to AVP) at the hOT receptor)”.
For CC[C@H](C)[C@@H]1NC(=O)[C@H](Cc2cccs2)NC(=O)[C@@H](N)CSSC[C@@H](C(=O)N2CCC[C@H]2C(=O)N[C@@H](CCN)C(=O)NCC(N)=O)NC(=O)[C@H](CC(N)=O)NC(=O)[C@H](CCC(N)=O)NC1=O [Compound 14] (H-C[2Thi]IQNCP[Dab]G-NH2; disulfide 1-6), the EC50 (hV1a receptor; [2]) was 0.54 nM and the “selectivity hOT/hV1a” value ([1]; EC50 ratio) was 75.
With CC[C@H](C)[C@@H]1NC(=O)[C@H](Cc2ccccc2)NC(=O)[C@@H](N)CSSC[C@@H](C(=O)N2CCC[C@H]2C(=O)N[C@@H](CCCN)C(=O)NCC(N)=O)NC(=O)[C@H](CC(N)=O)NC(=O)[C@H](CCC(=O)NO)NC1=O [Compound 16] (H-CFIE(NHOH)NCP[Orn]G-NH2; disulfide 1-6; N-terminus and C-terminus assumed) the EC50 (hV1a receptor; [2]) was 11.9 nM and the “selectivity hOT/hV1a” value [1, 3] was “+ (selective hV1a receptor agonist; EC50 hOT/hV1a ratio not determined due to very low agonist efficacy (<30% compared to AVP) at the hOT receptor)”.
In the case of CC[C@H](C)[C@@H]1NC(=O)[C@H](Cc2ccccn2)NC(=O)[C@@H](N)CSSC[C@@H](C(=O)N2CCC[C@H]2C(=O)N[C@@H](CCN)C(=O)NCC(N)=O)NC(=O)[C@H](CC(N)=O)NC(=O)[C@H](CCC(N)=O)NC1=O [Compound 17] (H-C[2Pal]IQNCP[Dab]G-NH2; disulfide 1-6), the EC50 (hV1a receptor) is reported as 30.3 nM and the “selectivity hOT/hV1a” value [1] is reported as “+ (key: +: selective hV1a receptor agonist; EC50 hOT/hV1a ratio not determined due to very low agonist efficacy (<30% compared to AVP) at the hOT receptor)”.
In the case of CC[C@H](C)[C@@H]1NC(=O)[C@H](Cc2cccnc2)NC(=O)[C@@H](N)CSSC[C@@H](C(=O)N2CCC[C@H]2C(=O)N[C@@H](CCN)C(=O)NCC(N)=O)NC(=O)[C@H](CC(N)=O)NC(=O)[C@H](CCC(N)=O)NC1=O [Compound 18] (H-C[3Pal]IQNCP[Dab]G-NH2; disulfide 1-6; N-terminus and C-terminus assumed), the EC50 (hV1a receptor; [2]) is reported as 29.9 nM and the “selectivity hOT/hV1a” value [1, 3] is reported as “+ (selective hV1a receptor agonist; EC50 hOT/hV1a ratio not determined due to very low agonist efficacy (<30% compared to AVP) at the hOT receptor)”.
CCNC(=O)CC[C@@H]1NC(=O)[C@H]([C@@H](C)CC)NC(=O)[C@H](Cc2ccccc2)NC(=O)[C@@H](N)CSSC[C@@H](C(=O)N2CCC[C@H]2C(=O)N[C@@H](CCCN)C(=O)NCC(N)=O)NC(=O)[C@H](CC(N)=O)NC1=O [Compound 20] (H-CFIE(NHEt)NCP[Orn]G-NH2; disulfide 1-6; N-terminus and C-terminus assumed) was tested, and the EC50 (hV1a receptor; [2]) was 39.3 nM and the “selectivity hOT/hV1a” value [1, 3] was “+ (selective hV1a receptor agonist; EC50 hOT/hV1a ratio not determined due to very low agonist efficacy (<30% compared to AVP) at the hOT receptor)”.
CC[C@H](C)[C@@H]1NC(=O)[C@H](Cc2ccccc2)NC(=O)[C@@H](N)CSSC[C@@H](C(=O)N2CCC[C@H]2C(=O)N[C@@H](CCCN)C(=O)NCC(N)=O)NC(=O)[C@H](CC(N)=O)NC(=O)[C@H](CCC(=O)NCC(C)C)NC1=O [Compound 21] (H-CFIE(NHiBu)NCP[Orn]G-NH2; disulfide 1-6) was tested, and the EC50 (hV1a receptor; [2]) was 20.7 nM and the “selectivity hOT/hV1a” value [1, 3] was “+ (selective hV1a receptor agonist; EC50 hOT/hV1a ratio not determined due to very low agonist efficacy (<30% compared to AVP) at the hOT receptor)”.
CC[C@H](C)[C@@H]1NC(=O)[C@H](Cc2ccccc2)NC(=O)[C@@H](N)CSSC[C@@H](C(=O)N2CCC[C@H]2C(=O)N[C@@H](CCNC(C)C)C(=O)NCC(N)=O)NC(=O)[C@H](CC(N)=O)NC(=O)[C@H](CCCC(N)=O)NC1=O [Compound 22] (H-CFI[Aad](NH2)NCP[Dab(iPr)]G-NH2; disulfide 1-6; N-terminus and C-terminus assumed) was tested, and the EC50 (hV1a receptor; [2]) was 18.1 nM and the “selectivity hOT/hV1a” value [1, 3] was “+ (selective hV1a receptor agonist; EC50 hOT/hV1a ratio not determined due to very low agonist efficacy (<30% compared to AVP) at the hOT receptor)”.
With CC[C@H](C)[C@@H]1NC(=O)[C@H](Cc2ccccc2)NC(=O)[C@@H](N)CSSC[C@@H](C(=O)N2CCC[C@H]2C(=O)N[C@@H](CCCN)C(=O)NCC(N)=O)NC(=O)[C@H](CC(N)=O)NC(=O)[C@H](CC(=O)NCCO)NC1=O [Compound 23] (H-CFID(NHCH2CH2OH)NCP[Orn]G-NH2; disulfide 1-6) the EC50 (hV1a receptor; [2]) was 7.97 nM and the “selectivity hOT/hV1a” value [1, 3] was “+ (selective hV1a receptor agonist; EC50 hOT/hV1a ratio not determined due to very low agonist efficacy (<30% compared to AVP) at the hOT receptor)”.
In the case of CC[C@H](C)[C@@H]1NC(=O)[C@H](Cc2ccccc2)NC(=O)[C@@H](N)CSSC[C@@H](C(=O)N2CCC[C@H]2C(=O)N[C@@H](CCCN)C(=O)NCC(N)=O)NC(=O)[C@H](CC(N)=O)NC(=O)[C@H](CC(=O)NO)NC1=O [Compound 24] (H-CFID(NHOH)NCP[Orn]G-NH2; disulfide 1-6; N-terminus and C-terminus assumed), the EC50 (hV1a receptor; [2]) is reported as 4.09 nM and the “selectivity hOT/hV1a” value [1, 3] is reported as “+ (selective hV1a receptor agonist; EC50 hOT/hV1a ratio not determined due to very low agonist efficacy (<30% compared to AVP) at the hOT receptor)”.
With CC[C@H](C)[C@@H]1NC(=O)[C@H](Cc2ccccc2)NC(=O)[C@@H](N)CSSC[C@@H](C(=O)N2CCC[C@H]2C(=O)N[C@@H](CCCN)C(=O)NCC(N)=O)NC(=O)[C@H](CC(N)=O)NC(=O)[C@H](CC(=O)NC(CO)CO)NC1=O [Compound 27] (H-CFID(NHCH(CH2OH)2)NCP[Orn]G-NH2; disulfide 1-6; N-terminus and C-terminus assumed) the EC50 (hV1a receptor; [2]) was 16.2 nM and the “selectivity hOT/hV1a” value [1, 3] was “+ (selective hV1a receptor agonist; EC50 hOT/hV1a ratio not determined due to very low agonist efficacy (<30% compared to AVP) at the hOT receptor)”.
CC[C@H](C)[C@@H]1NC(=O)[C@H](Cc2ccccc2)NC(=O)[C@@H](N)CSSC[C@@H](C(=O)N2CCC[C@H]2C(=O)N[C@@H](CCCN)C(=O)NCC(N)=O)NC(=O)[C@H](CC(N)=O)NC(=O)[C@H](CC(=O)NCCOCCO)NC1=O [Compound 29] (H-CFID(X4)NCP[Orn]G-NH2; disulfide 1-6; N-terminus and C-terminus assumed) was tested, and the EC50 (hV1a receptor; [2]) was 4.77 nM and the “selectivity hOT/hV1a” value [1, 3] was “+ (selective hV1a receptor agonist; EC50 hOT/hV1a ratio not determined due to very low agonist efficacy (<30% compared to AVP) at the hOT receptor)”.
CC[C@H](C)[C@@H]1NC(=O)[C@H](Cc2ccccc2)NC(=O)[C@@H](N)CSSC[C@@H](C(=O)N2CCC[C@H]2C(=O)N[C@@H](CCN)C(=O)NCC(N)=O)NC(=O)[C@H](CC(N)=O)NC(=O)[C@H](CC(=O)NC)NC1=O [Compound 31] (H-CFID(NHMe)NCP[Dab]G-NH2; disulfide 1-6; N-terminus and C-terminus assumed) was tested, and the EC50 (hV1a receptor; [2]) was 3.91 nM and the “selectivity hOT/hV1a” value [1, 3] was “+ (selective hV1a receptor agonist; EC50 hOT/hV1a ratio not determined due to very low agonist efficacy (<30% compared to AVP) at the hOT receptor)”.
